Measured values reported in paper PMC5484485, “In vitro and in vivo effects of kisspeptin antagonists p234, p271, p354, and p356 on GPR54 activation” (PLoS ONE, 2017).
Square brackets hold non-standard residues; d marks the D form. Ends that are not written are not given here.

Experiments:
[1] = system: plasma LH concentration; assay: Plasma LH in anestrous Beagle bitches during antagonist infusion and after cKP10 bolus; format: in vivo, dog; conditions: n = 6
Excerpt: Thirteen adult anestrous Beagle bitches were used for this study. Six dogs with a median age of 89 months (range 43–122 months) were used as control group, receiving cKP10 without an antagonist. Eight dogs with a median age of 52 months (range 31–116 months) were used for the antagonist experiments. One dog was first used in the control group and 12 months later for the antagonist experiments. Of the eight dogs used for the antagonist experiments, four received p271, p354, and p356. In two of the eight dogs both p354 and p356 were tested, while in the remaining two dogs only p271 was tested, in order to test every antagonist in 6 dogs. The time between testing of different kisspeptin antagonists was at least 5 days (range 5–15 days) to ensure that there were no peptide residues. Kisspeptin antagonist p234 per se was not tested in vivo because p271 is in fact p234 with a penetratin tag to enhance passage across the blood-brain barrier, as has been described for use with peripheral administration.
Kisspeptin antagonists (50 μg/kg/h) were administered continuously for three hours via a catheter in the cephalic vein. Two hours after the start of the infusion, a single bolus of cKP10 (0.5 μg/kg) was administered intravenously. Blood samples were collected from the jugular vein by venipuncture at -40 min and 0 min before the antagonist infusion, and then every 30 min for two hours. After the administration of cKP10, blood samples were collected at 10, 20, 40, and 60 min (i.e., 130, 140, 160, and 180 min after the start of the antagonist infusion).
As a control, KP stimulation tests (without the administration of a kisspeptin antagonist) were performed in six dogs. Blood samples were collected from the jugular vein by venipuncture at -40 min and 0 min before, and then at 10, 20, 40, and 60 min after administration of cKP10 (0.5 μg/kg). Plasma LH concentrations were measured in all blood samples.
Plasma LH concentrations were measured with a heterologous radioimmunoassay validated for the dog, as described previously. The intra- and interassay CVs for values above 0.5 μg/l were 2.3 and 10.5%, respectively, and the limit of quantitation was 0.3 μg/l.
In both groups of dogs (experimental and control), the basal plasma LH concentration was calculated for each dog as the mean of the values at –40 and 0 min before cKP10 or antagonist administration. All LH values that exceeded the mean of all basal samples plus 3 SD were attributed to pulsatile secretion and were treated as outliers and excluded from statistical analysis. Log transformation of plasma LH concentrations was used because data were not normally distributed. A linear mixed model was used to analyze differences in plasma LH concentrations before and after KP10, with or without a kisspeptin antagonist (group effects: p271, p354, p356, and controls), with Bonferroni correction. P<0.05 was considered significant.

[2] = system: kisspeptin receptor; conditions: ref unpublished data; cited from earlier work
Method: The following peptides were tested for antagonistic properties on the kisspeptin receptor: p234 ((D-Ala)-Asn-Trp-Asn-Gly-Phe-Gly-(D-Trp)-Arg-Phe-NH2), p271 (Arg-Arg-Met-Lys-Trp-Lys-Lys-Tyr-(D-Ala)-Asn-Trp-Asn-Gly-Phe-Gly-(D-Trp)-Arg-Phe-NH2), p354 ((D-Ala)-Tyr-Asn-Phe-Asn-Gly-Phe-Gly-(D-Trp)-Arg-Phe-NH2), and p356 ((D-Ala)-Tyr-Asn-Trp-Asn-Gly-Phe-Gly-(D-Trp)-Lys-Phe-NH2). Peptide 354 and p356 are next generation analogs refining p234.

[3] = biological target: T1, human GPR54 (Homo sapiens, UniProt Q969F8); assay: Flow cytometric calcium flux assay, response to peptide alone (agonist / intrinsic activity); format: cell-based; design: host or cells: rat hematopoietic CHEM1 cells expressing endogenous Galpha15
Method: In vitro analyses of the effects of kisspeptin and kisspeptin antagonists, were performed using HT[…] cells (rat hematopoietic CHEM1 cells expressing endogenous Gα15 and, stably expressing the human GPR54 receptor (Millipore BV, the Netherlands), CHEM1-GPR54. Cells were counted and suspended in HBSS+++ at a concentration of 5*10^6 cells/ml. To load the cells with the fluorescent dye ester they were incubated in HBSS+++ adjusted to a concentration of 2 μM Fluo-3 AM (Molecular Probes, Life Technologies, the Netherlands) for 1h at 37°C under agitation in the dark. After incubation, the cells were washed by adding HBSS+++ to a volume of 10 ml followed by centrifugation (5 min, 150 x g) to remove excess of Fluo-3AM. […] Thereafter the tube was removed briefly and 25 μl peptide (see below) was added, after which aspiration and analysis continued. For statistical analyses fluorescent data recorded during the time interval 30-60 seconds after initiation of measurement were used. […] Experiments were performed 3 times. Representative flow cytometry results are depicted in Fig 1. […] We then assessed whether these antagonists could compete with KP10 for its receptor. […] For this purpose 25 μl quantities of the antagonists were added to 200 μl of Fluo-3 AM labelled cells (10^6 cells/ml) and incubated for 15 min. […] Peptides p354 and p356 were tested three times with both human and canine KP10; while peptides p234 and p271 were tested three times with human KP10 and once with canine KP10. […] A multivariate general linear model was set up to analyze differences in calcium response between the different concentrations, with Dunnett's test as a post hoc procedure for the antagonists and Bonferroni's test for the agonists.

[4] = biological target: T1, human GPR54; assay: Flow cytometric calcium flux assay, KP10-induced response after 15 min pre-incubation with antagonist; format: cell-based; design: host or cells: rat hematopoietic CHEM1 cells expressing endogenous Galpha15; conditions: 10^-5 M; 10^-8 M KP10; P<0.001; ascribed to intrinsic response, not antagonism
Method: In vitro analyses of the effects of kisspeptin and kisspeptin antagonists, were performed using HT[…] cells (rat hematopoietic CHEM1 cells expressing endogenous Gα15 and, stably expressing the human GPR54 receptor (Millipore BV, the Netherlands), CHEM1-GPR54. Cells were counted and suspended in HBSS+++ at a concentration of 5*10^6 cells/ml. To load the cells with the fluorescent dye ester they were incubated in HBSS+++ adjusted to a concentration of 2 μM Fluo-3 AM (Molecular Probes, Life Technologies, the Netherlands) for 1h at 37°C under agitation in the dark. After incubation, the cells were washed by adding HBSS+++ to a volume of 10 ml followed by centrifugation (5 min, 150 x g) to remove excess of Fluo-3AM. […] Thereafter the tube was removed briefly and 25 μl peptide (see below) was added, after which aspiration and analysis continued. For statistical analyses fluorescent data recorded during the time interval 30-60 seconds after initiation of measurement were used. […] We then assessed whether these antagonists could compete with KP10 for its receptor. […] For this purpose 25 μl quantities of the antagonists were added to 200 μl of Fluo-3 AM labelled cells (10^6 cells/ml) and incubated for 15 min. […] Peptides p354 and p356 were tested three times with both human and canine KP10; while peptides p234 and p271 were tested three times with human KP10 and once with canine KP10. To analyze the effects of different concentrations of the KP antagonists on the calcium response due to KP10 addition, the differences in fluorescence before and after KP10 were calculated (the calcium response). The calcium response ratios were calculated as the calcium response of the CHEM1-GPR54 cells pre-incubated with different concentrations of KP antagonist and the control (the calcium response of the cells without KP antagonist). These calcium response ratios were log transformed and used for further analysis by univariate analysis of variance, with the Dunnett's test as post hoc test. The calcium response ratios were set as dependent variables and the different concentrations of the antagonists and the two types of KP10 were used as fixed factors. The residuals were normally distributed.

[5] = antagonist 50 μg/kg/h iv, cKP10 0.5 μg/kg iv

T1 sequence (Q969F8 whole entry): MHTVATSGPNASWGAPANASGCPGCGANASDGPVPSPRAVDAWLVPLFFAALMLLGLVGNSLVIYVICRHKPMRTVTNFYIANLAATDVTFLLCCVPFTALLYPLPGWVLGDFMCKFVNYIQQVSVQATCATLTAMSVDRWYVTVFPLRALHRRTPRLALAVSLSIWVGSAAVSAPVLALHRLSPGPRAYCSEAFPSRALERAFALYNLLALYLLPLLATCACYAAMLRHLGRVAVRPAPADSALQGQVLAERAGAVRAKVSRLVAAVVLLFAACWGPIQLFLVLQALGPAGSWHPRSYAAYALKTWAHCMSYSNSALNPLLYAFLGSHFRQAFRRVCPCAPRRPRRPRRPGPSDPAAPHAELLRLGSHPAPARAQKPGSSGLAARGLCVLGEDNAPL

intrinsic calcium response at highest concentration ([3]; 10^-5 M, P = 0.001): clear calcium response
pharmacological character on CHEM1-GPR54 cells ([3]; authors' conclusion): partial agonist
calcium response ratio versus control at highest concentration [4]: smaller than the negative control
Substance: [dA]YNWNGFG[dW]KF-NH2 [p356]
Median (and range) plasma LH, t = 30 ([1]; 30 min of antagonist infusion 50 μg/kg/h iv): 4.1 (2.4–12.8) μg/L
Median (and range) plasma LH, t = 60 ([1]; 60 min of antagonist infusion 50 μg/kg/h iv): 3.9 (2.2–7.7) μg/L
Median (and range) plasma LH, t = 90 ([1]; 90 min of antagonist infusion 50 μg/kg/h iv): 4.5 (2.8–6.7) μg/L
Median (and range) plasma LH, t = 120 ([1]; 120 min of antagonist infusion 50 μg/kg/h iv, before cKP10): 4.9 (2.1–10.4) μg/L
median maximum increment in plasma LH concentration after cKP10 during antagonist administration [1, 5]: 8.1 µg/L
range of maximum increment in plasma LH concentration after cKP10 during antagonist administration [1, 5]: 6.3 to 18.3 µg/L
Median (and range) plasma LH, t = 130 / t = 10* ([1]; antagonist infusion 50 μg/kg/h iv, 10 min after cKP10 0.5 μg/kg iv): 12.8 (9.1–23.1) μg/L
Median (and range) plasma LH, t = 140 / t = 20* ([1]; antagonist infusion 50 μg/kg/h iv, 20 min after cKP10 0.5 μg/kg iv): 8.7 (7.1–13.4) μg/L
Median (and range) plasma LH, t = 180 / t = 60* ([1]; antagonist infusion 50 μg/kg/h iv, 60 min after cKP10 0.5 μg/kg iv): 4.7 (3.6–12.8) μg/L
Median (and range) plasma LH, Basal ([1]; before antagonist infusion (mean of -40 and 0 min per dog)): 4.3 (2.8–6.0) μg/L
effect on basal plasma LH concentration ([1]; continuous iv 50 μg/kg/h, anestrous bitches): did not cause significant alterations
binding and inhibition of kisspeptin action on inositol generation, potency range [2]: nanomolar range
